Consider one compound from paper PMC8467576, “Novel Ubiquitin Specific Protease-13 Inhibitors Alleviate Neurodegenerative Pathology” (Metabolites, 2021).

What all share (format): cell-based
The target in data set [1] is T1, USP13 (Homo sapiens, UniProt Q92995).
T1 construct: ELISA for USP13 (MyBioSource, Cat # MBS9335287, San Diego, CA, USA); endogenous in cells; host or cells: human SH-SY5Y neuroblastoma cells transfected with human wild-type alpha-synuclein
T1 sequence (Q92995 1-863): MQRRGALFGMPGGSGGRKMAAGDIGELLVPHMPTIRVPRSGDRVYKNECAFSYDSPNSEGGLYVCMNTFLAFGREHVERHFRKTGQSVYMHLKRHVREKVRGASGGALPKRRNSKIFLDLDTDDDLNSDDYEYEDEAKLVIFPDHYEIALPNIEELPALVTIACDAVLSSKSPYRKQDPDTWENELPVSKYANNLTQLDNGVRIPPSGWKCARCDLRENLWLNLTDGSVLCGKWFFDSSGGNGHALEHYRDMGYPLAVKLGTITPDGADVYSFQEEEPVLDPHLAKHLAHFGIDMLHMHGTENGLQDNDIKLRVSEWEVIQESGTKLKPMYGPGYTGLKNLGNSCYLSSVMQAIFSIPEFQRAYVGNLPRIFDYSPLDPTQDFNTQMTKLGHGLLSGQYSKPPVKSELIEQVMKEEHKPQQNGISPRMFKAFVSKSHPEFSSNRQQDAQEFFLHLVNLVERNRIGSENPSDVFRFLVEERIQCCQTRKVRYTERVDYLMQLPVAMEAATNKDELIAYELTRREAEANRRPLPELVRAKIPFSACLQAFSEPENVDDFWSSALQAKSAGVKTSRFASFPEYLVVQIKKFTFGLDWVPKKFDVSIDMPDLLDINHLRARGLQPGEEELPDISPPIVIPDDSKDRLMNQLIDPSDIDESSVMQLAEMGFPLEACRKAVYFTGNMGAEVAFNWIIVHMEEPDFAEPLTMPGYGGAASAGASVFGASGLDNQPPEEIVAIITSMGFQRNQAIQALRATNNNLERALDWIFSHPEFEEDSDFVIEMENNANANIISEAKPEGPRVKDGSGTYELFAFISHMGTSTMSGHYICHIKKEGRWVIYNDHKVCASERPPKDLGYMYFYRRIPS
Briefly: USP13 activity via functional ELISA in alpha-synuclein transfected SH-SY5Y cells. Conditions: SH-SY5Y cells transfected with human alpha-synuclein, 5 h, read-out: Estimated IC50 to USP13. On the procedure: (§1) Stably transfected human neuroblastoma SH-SY5Y cells with human wild-type alpha-synuclein were treated with 1 mM, 100 µM, 10 µM, 1 µM, 0.1 µM, 0.01 µM and 0.001 µM of each of BK50118-A, BK50118-B, BK50118-C, CL3-499, CL3-512 and CL3-514 dissolved in an equivalent volume of DMSO for 5 h. […] The other 5 compounds were also able to lower alpha-synuclein levels but with less potency (Figure 3H,I,K–M).
(§2) SH-SY5Y cells were transiently transfected for 24 h with human wild-type α-synuclein using Fugene HD transfection reagent (Promega, E2311, Madison, WI, USA) according to manufacturer’s protocol. Cells were treated with 1 mM, 0.1 mM, 0.01 mM, 1 µM, 0.1 µM, 0.01 µM and 0.001 µM of each novel compounds (BK50118-A, BK50118-B, BK50118-C, CL3-499, CL3-512 and CL3-514) dissolved in DMSO for 5 h. Cells were then harvested on ice by removing culture medium and adding 0.2 mL 1x sodium-tris, EDTA, NP-40 (STEN) buffer (50 mM Tris (pH 7.6), 150 mM NaCl, 2 mM EDTA, 0.2 % NP-40, 0.2 % with Halt protease and phosphatase inhibitor solution (ThermoFisher, 78446). Cells were detached with a cell scraper and collected into centrifuge tubes and incubated at 4 °C for 30 min with agitation. Samples were stored at −80 °C and used for ELISA analyses. For cell viability assay, SHSY-5Y cells stably expressing human wild-type alpha-synuclein were treated with 1 mM, 0.1 mM, 0.01 mM, 1 µM, 0.1 µM, 0.01 µM and 0.001 µM of each novel compound (BK50118-A, BK50118-B, BK50118-C, CL3-499, CL3-512 and CL3-514) dissolved in DMSO for 5 h. Cell viability was determined via lactate dehydrogenase assay on culture media (Thermofisher, 88954) and MTT assay on plated cells (Thermofisher, V13154).
The ELISA for USP13 (MyBioSource, Cat # MBS9335287, San Diego, CA, USA), Human alpha-synuclein (Biolegend, Cat # 844101, San Diego, CA, USA) and specific p-Tau ser396 (Invitrogen, KHB7031, Waltham, MA, USA) were performed on cell or brain tissue extracts as described above according to manufacturers’ protocol.
All statistical analyses were performed using GraphPad Prism version 5.0 (GraphPad software, Inc, San Diego, CA, USA). Two-tailed student’s t-test was used in comparison of means of two groups. Ordinary one-way analysis of variance (ANOVA) followed by Newman–Keuls or Dunnett comparison post hoc tests were used in comparison of means of multiple groups. Asterisks denote actual p-value significances (* < 0.05, ** < 0.01, *** < 0.001 and **** < 0.0001), and N is the number of animals or the number of independent experiments (cell culture) per group. Unless otherwise indicated, data are expressed as Mean ± SD. IC50 to USP13 levels was also estimated using GraphPad Prism version 5.0 (GraphPad software, Inc, San Diego, CA, USA).

The test system of data set [2] is human alpha-synuclein. As to the kind of experiment: Human alpha-synuclein ELISA in transfected SH-SY5Y cells. Conditions: 5 h, at 1 mM and 100 µM. As for the experimental part:
as §1
SH-SY5Y cells were transiently transfected for 24 h with human wild-type α-synuclein using Fugene HD transfection reagent (Promega, E2311, Madison, WI, USA) according to manufacturer’s protocol. Cells were treated with 1 mM, 0.1 mM, 0.01 mM, 1 µM, 0.1 µM, 0.01 µM and 0.001 µM of each novel compounds (BK50118-A, BK50118-B, BK50118-C, CL3-499, CL3-512 and CL3-514) dissolved in DMSO for 5 h. […] Cell viability was determined via lactate dehydrogenase assay on culture media (Thermofisher, 88954) and MTT assay on plated cells (Thermofisher, V13154). […]

Data set [3] deals with SH-SY5Y human neuroblastoma cells. Briefly: LDH and MTT cell viability assays. Conditions: 5 h, compared to DMSO or untreated controls. As for the experimental part: BK50118-B and BK50118-C (Figure 2C,D) decreased cell viability near and above 100 μM compared to DMSO or untreated controls. CL3-499 (Figure 2G) decreased cell viability near and above 1 mM compared to DMSO or untreated controls.
as §2

For `Fc1ccc2nccc(OCc3ccccc3)c2c1` [BK50118-C, 4-benzyloxy-6-fluoroquinoline], in data set [1], the IC50 was 0.42 nM. The “alpha-synuclein levels (ELISA)” value in data set [2] was “almost complete alpha-synuclein clearance”. Further, the “concentration near and above which cell viability decreased” value in data set [3] is at least 100 µM.
